According to a polymer gas permeability compilation:

SMILES	CH4 permeability [Barrer]	CO2 permeability [Barrer]	H2 permeability [Barrer]	N2 permeability [Barrer]	O2 permeability [Barrer]
*CC(*)Cl (repeat unit)	0.0263	0.16	1.79	0.0109	0.0453
*c1ccc(Cc2ccc(N3C(=O)c4ccc(-c5ccc6c(c5)C(=O)N(*)C6=O)cc4C3=O)cc2F)c(F)c1 (repeat unit)	0.0129	0.542		0.0203	0.143
*c1ccc(N2C(=O)c3ccc(C(=O)Oc4ccc(C(c5ccc(OC(=O)c6ccc7c(c6)C(=O)N(*)C7=O)cc5)(C(F)(F)F)C(F)(F)F)cc4)cc3C2=O)cc1 (repeat unit)			4.36	0.0355	0.251
*C(=C(*)c1ccc(-c2ccc(C(C)(C)C)cc2)cc1)c1ccccc1 (repeat unit)	190	1220	455	70.5	195
*c1ccc(Oc2ccc(-n3c(=O)c4cc5sc6cc7c(=O)n(*)c(=O)c7cc6sc5cc4c3=O)cc2)cc1 (repeat unit)	0.082	4	11	0.11	0.74
*C(=C(*)c1ccc(-c2ccc([Si](C)(C)C)cc2)cc1)c1ccccc1 (repeat unit)	450	2200	810	160	390
*c1ccc(Oc2ccc(C(c3ccc(Oc4ccc(-n5c(=O)c6cc7c(=O)n(*)c(=O)c7cc6c5=O)cc4C(F)(F)F)cc3)(C(F)(F)F)C(F)(F)F)cc2)c(C(F)(F)F)c1 (repeat unit)	0.937	24.6	50.4	1.5	7.06
*/N=C1/c2cc(C(c3ccc4c(c3)C(=O)n3c-4nc4c(Oc5ccc(*)c(*)c5)cccc43)(C(F)(F)F)C(F)(F)F)ccc2C(=O)N1* (repeat unit)	0.54	27.6		1.22	7.9
*c1ccc(-c2nc3cc(-c4ccc5[nH]c(*)nc5c4)ccc3[nH]2)c(Br)c1 (repeat unit)			0.38		0.006
*CC(*)OC(=O)c1ccccc1C (repeat unit)	0.115	2.23		0.0859	0.47
*Oc1ccc(Oc2ccc3c(c2)-c2nc4cc(Oc5ccc6nc7n(c6c5)C(=O)c5cc(*)ccc5-7)ccc4n2C3=O)cc1 (repeat unit)			5.34	0.036	0.23
*Oc1c(C)cc(C(c2cc(C)c(Oc3ccc(S(=O)(=O)c4ccc(*)cc4)cc3)c(C)c2)(C(F)(F)F)C(F)(F)F)cc1C (repeat unit)	3	72		4	18
*c1ccc(Oc2ccc(Oc3ccc(*)cc3)c3c2C2c4ccccc4C3c3ccccc32)cc1 (repeat unit)	0.21	13.5		0.58	3.4
*CC(*)(C)C#N (repeat unit)		0.0032			0.0012
*Oc1cc(C)c(C2(c3cc(C)c(Oc4ccc(S(=O)(=O)c5ccc(*)cc5)cc4)cc3C)OC(=O)c3ccccc32)cc1C (repeat unit)	0.225	7.69	16.9	0.21	1.55
*c1ccc(-c2ccc(-n3c(=O)c4cc5oc6cc7c(cc6oc5cc4c3=O)C3(CC(C)(C)c4cc5oc6cc8c(=O)n(*)c(=O)c8cc6oc5cc43)CC7(C)C)cc2C(F)(F)F)c(C(F)(F)F)c1 (repeat unit)	20	420	300	16	64
*c1ccc(C(c2ccc(-c3nc4cc(C(c5ccc6oc(*)nc6c5)(C(F)(F)F)C(F)(F)F)ccc4o3)cc2)(C(F)(F)F)C(F)(F)F)cc1 (repeat unit)	176	4540	3900	300	1150
*c1cccc(Oc2ccc(C(c3ccc(Oc4cccc(-n5c(=O)c6cc7c(=O)n(*)c(=O)c7cc6c5=O)c4)cc3)(C(F)(F)F)C(F)(F)F)cc2)c1 (repeat unit)	0.17	6.12	19	0.292	1.4
*C(=C(*)c1ccc(C(C)C)cc1)c1ccccc1 (repeat unit)		1100		150	300
*C/C=C\C* (repeat unit)		138	41.9	15.8	19
*Oc1ccc(S(=O)(=O)c2ccc(Oc3ccc(C(C)(C)c4ccc(*)c(C(OC)(C(F)(F)F)C(F)(F)F)c4)cc3C(OC)(C(F)(F)F)C(F)(F)F)cc2)cc1 (repeat unit)		7.7		0.26	2
*c1cccc(C(c2cccc(-c3nnc(*)n3-c3ccc(O)cc3)c2)(C(F)(F)F)C(F)(F)F)c1 (repeat unit)	1.41	66.3		2.37	12.5
